Experimental data reported in the supplement of paper PMC4862054.

Each molecule was assayed on MDA-MB-436. Conditions: 72 h.
How it was run: (§1)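 For viability and cell death testing, 384-well plates carried compound at 5 concentrations in 10-fold steps over a compound-specific 10,000-fold range, and breast cancer cell lines were seeded in 20 µl suspension. After 72 h incubation, cell death was read by CellTox Green fluorescence (485/520 nm) before viability was read by CellTiter-Glo luminescence. EC50 was fitted from the dose-response curves and censored at the top concentration. Normalisation on each plate was to 0.1 % DMSO and a positive kill control.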

EC50, CellTiter-Glo | Structure (SMILES)
1050 nM | COC1=C2C[C@@H](C)C[C@H](OC)[C@H](O)[C@@H](C)/C=C(\C)[C@H](OC(N)=O)[C@@H](OC)/C=C\C=C(/C)C(=O)NC(=CC1=O)C2=O [Geldanamycin]
22.6 nM | COC(=O)C[C@](O)(CCCC(C)(C)O)C(=O)O[C@@H]1C(OC)=C[C@]23CCCN2CCc2cc4c(cc2[C@H]13)OCO4 [Omacetaxine]
2720 nM | C[C@@]1(C(=O)Nc2ccc(F)nc2)CCCN1c1nc(Nc2cc(C3CC3)n[nH]2)c2cccn2n1
23.8 nM | COc1ncc(-c2ccc3nccc(-c4ccnnc4)c3c2)cc1NS(=O)(=O)c1ccc(F)cc1F
452 nM | Cn1c(=O)c(F)c(Nc2ccc(I)cc2F)c2c(=O)n(C[C@@H](O)CO)cnc21 [TAK-733]

These molecules were tested on HCC1143. Conditions: 72 h.
How it was run: as §1

EC50, CellTiter-Glo | Structure (SMILES)
3640 nM | CN(c1ccccc1CNc1nc(Nc2ccc3c(c2)CC(=O)N3)ncc1C(F)(F)F)S(C)(=O)=O
6310 nM | COC1=C2C[C@@H](C)C[C@H](OC)[C@H](O)[C@@H](C)/C=C(\C)[C@H](OC(N)=O)[C@@H](OC)/C=C\C=C(/C)C(=O)NC(=CC1=O)C2=O [Geldanamycin]
80.6 nM | COC(=O)C[C@](O)(CCCC(C)(C)O)C(=O)O[C@@H]1C(OC)=C[C@]23CCCN2CCc2cc4c(cc2[C@H]13)OCO4 [Omacetaxine]
4150 nM | C[C@@]1(C(=O)Nc2ccc(F)nc2)CCCN1c1nc(Nc2cc(C3CC3)n[nH]2)c2cccn2n1
32.5 nM | COc1ncc(-c2ccc3nccc(-c4ccnnc4)c3c2)cc1NS(=O)(=O)c1ccc(F)cc1F

What follows are molecules tested on CAL-120. Conditions: 72 h.
How it was run: as §1

Structure (SMILES) | EC50, CellTiter-Glo
CN(c1ccccc1CNc1nc(Nc2ccc3c(c2)CC(=O)N3)ncc1C(F)(F)F)S(C)(=O)=O | 8760 nM
COC1=C2C[C@@H](C)C[C@H](OC)[C@H](O)[C@@H](C)/C=C(\C)[C@H](OC(N)=O)[C@@H](OC)/C=C\C=C(/C)C(=O)NC(=CC1=O)C2=O [Geldanamycin] | 6700 nM
COC(=O)C[C@](O)(CCCC(C)(C)O)C(=O)O[C@@H]1C(OC)=C[C@]23CCCN2CCc2cc4c(cc2[C@H]13)OCO4 [Omacetaxine] | 93.8 nM
C[C@@]1(C(=O)Nc2ccc(F)nc2)CCCN1c1nc(Nc2cc(C3CC3)n[nH]2)c2cccn2n1 | 1250 nM
COc1ncc(-c2ccc3nccc(-c4ccnnc4)c3c2)cc1NS(=O)(=O)c1ccc(F)cc1F | 27.6 nM
Cn1c(=O)c(F)c(Nc2ccc(I)cc2F)c2c(=O)n(C[C@@H](O)CO)cnc21 [TAK-733] | 66.6 nM

The molecules below were run on CAL-85-1. Conditions: 72 h.
How it was run: as §1

Structure (SMILES) | EC50, CellTiter-Glo
CN(c1ccccc1CNc1nc(Nc2ccc3c(c2)CC(=O)N3)ncc1C(F)(F)F)S(C)(=O)=O | 2450 nM
COC1=C2C[C@@H](C)C[C@H](OC)[C@H](O)[C@@H](C)/C=C(\C)[C@H](OC(N)=O)[C@@H](OC)/C=C\C=C(/C)C(=O)NC(=CC1=O)C2=O [Geldanamycin] | 2680 nM
COC(=O)C[C@](O)(CCCC(C)(C)O)C(=O)O[C@@H]1C(OC)=C[C@]23CCCN2CCc2cc4c(cc2[C@H]13)OCO4 [Omacetaxine] | 36.2 nM
C[C@@]1(C(=O)Nc2ccc(F)nc2)CCCN1c1nc(Nc2cc(C3CC3)n[nH]2)c2cccn2n1 | 467 nM
COc1ncc(-c2ccc3nccc(-c4ccnnc4)c3c2)cc1NS(=O)(=O)c1ccc(F)cc1F | 15.8 nM
Cn1c(=O)c(F)c(Nc2ccc(I)cc2F)c2c(=O)n(C[C@@H](O)CO)cnc21 [TAK-733] | 125 nM
O=C(c1ccc(OCCN2CCCCC2)cc1)c1c(-c2ccc(O)cc2)sc2cc(O)ccc12 [Raloxifene] | 3610 nM

These molecules were tested on MDA-MB-468. Conditions: 72 h.
How it was run: as §1

EC50, CellTiter-Glo | Structure (SMILES)
1750 nM | CN(c1ccccc1CNc1nc(Nc2ccc3c(c2)CC(=O)N3)ncc1C(F)(F)F)S(C)(=O)=O
4130 nM | COC1=C2C[C@@H](C)C[C@H](OC)[C@H](O)[C@@H](C)/C=C(\C)[C@H](OC(N)=O)[C@@H](OC)/C=C\C=C(/C)C(=O)NC(=CC1=O)C2=O [Geldanamycin]
45.5 nM | COC(=O)C[C@](O)(CCCC(C)(C)O)C(=O)O[C@@H]1C(OC)=C[C@]23CCCN2CCc2cc4c(cc2[C@H]13)OCO4 [Omacetaxine]
207 nM | C[C@@]1(C(=O)Nc2ccc(F)nc2)CCCN1c1nc(Nc2cc(C3CC3)n[nH]2)c2cccn2n1
43 nM | COc1ncc(-c2ccc3nccc(-c4ccnnc4)c3c2)cc1NS(=O)(=O)c1ccc(F)cc1F
29.8 nM | Cn1c(=O)c(F)c(Nc2ccc(I)cc2F)c2c(=O)n(C[C@@H](O)CO)cnc21 [TAK-733]
4640 nM | O=C(c1ccc(OCCN2CCCCC2)cc1)c1c(-c2ccc(O)cc2)sc2cc(O)ccc12 [Raloxifene]

These molecules were tested on HCC1599. Conditions: 72 h.
How it was run: as §1

EC50, CellTiter-Glo | Structure (SMILES)
4380 nM | CN(c1ccccc1CNc1nc(Nc2ccc3c(c2)CC(=O)N3)ncc1C(F)(F)F)S(C)(=O)=O
5810 nM | COC1=C2C[C@@H](C)C[C@H](OC)[C@H](O)[C@@H](C)/C=C(\C)[C@H](OC(N)=O)[C@@H](OC)/C=C\C=C(/C)C(=O)NC(=CC1=O)C2=O [Geldanamycin]
41.1 nM | COC(=O)C[C@](O)(CCCC(C)(C)O)C(=O)O[C@@H]1C(OC)=C[C@]23CCCN2CCc2cc4c(cc2[C@H]13)OCO4 [Omacetaxine]
2260 nM | C[C@@]1(C(=O)Nc2ccc(F)nc2)CCCN1c1nc(Nc2cc(C3CC3)n[nH]2)c2cccn2n1
13.9 nM | COc1ncc(-c2ccc3nccc(-c4ccnnc4)c3c2)cc1NS(=O)(=O)c1ccc(F)cc1F
9620 nM | O=C(c1ccc(OCCN2CCCCC2)cc1)c1c(-c2ccc(O)cc2)sc2cc(O)ccc12 [Raloxifene]

Each molecule was assayed on SK-BR-3. Conditions: 72 h.
How it was run: as §1

EC50, CellTiter-Glo | Structure (SMILES)
3190 nM | CN(c1ccccc1CNc1nc(Nc2ccc3c(c2)CC(=O)N3)ncc1C(F)(F)F)S(C)(=O)=O
1820 nM | COC1=C2C[C@@H](C)C[C@H](OC)[C@H](O)[C@@H](C)/C=C(\C)[C@H](OC(N)=O)[C@@H](OC)/C=C\C=C(/C)C(=O)NC(=CC1=O)C2=O [Geldanamycin]
86.7 nM | COC(=O)C[C@](O)(CCCC(C)(C)O)C(=O)O[C@@H]1C(OC)=C[C@]23CCCN2CCc2cc4c(cc2[C@H]13)OCO4 [Omacetaxine]
127 nM | C[C@@]1(C(=O)Nc2ccc(F)nc2)CCCN1c1nc(Nc2cc(C3CC3)n[nH]2)c2cccn2n1
6.82 nM | COc1ncc(-c2ccc3nccc(-c4ccnnc4)c3c2)cc1NS(=O)(=O)c1ccc(F)cc1F

What follows are molecules tested on CAL-148. Conditions: 72 h.
How it was run: as §1

Structure (SMILES) | EC50, CellTiter-Glo
CN(c1ccccc1CNc1nc(Nc2ccc3c(c2)CC(=O)N3)ncc1C(F)(F)F)S(C)(=O)=O | 1880 nM
COC1=C2C[C@@H](C)C[C@H](OC)[C@H](O)[C@@H](C)/C=C(\C)[C@H](OC(N)=O)[C@@H](OC)/C=C\C=C(/C)C(=O)NC(=CC1=O)C2=O [Geldanamycin] | 7190 nM
COC(=O)C[C@](O)(CCCC(C)(C)O)C(=O)O[C@@H]1C(OC)=C[C@]23CCCN2CCc2cc4c(cc2[C@H]13)OCO4 [Omacetaxine] | 56.8 nM
COc1ncc(-c2ccc3nccc(-c4ccnnc4)c3c2)cc1NS(=O)(=O)c1ccc(F)cc1F | 76.8 nM

These molecules were tested on MFM-223. Conditions: 72 h.
How it was run: as §1

Structure (SMILES) | EC50, CellTiter-Glo
CN(c1ccccc1CNc1nc(Nc2ccc3c(c2)CC(=O)N3)ncc1C(F)(F)F)S(C)(=O)=O | 9400 nM
COC1=C2C[C@@H](C)C[C@H](OC)[C@H](O)[C@@H](C)/C=C(\C)[C@H](OC(N)=O)[C@@H](OC)/C=C\C=C(/C)C(=O)NC(=CC1=O)C2=O [Geldanamycin] | 666 nM
COC(=O)C[C@](O)(CCCC(C)(C)O)C(=O)O[C@@H]1C(OC)=C[C@]23CCCN2CCc2cc4c(cc2[C@H]13)OCO4 [Omacetaxine] | 102 nM
C[C@@]1(C(=O)Nc2ccc(F)nc2)CCCN1c1nc(Nc2cc(C3CC3)n[nH]2)c2cccn2n1 | 1570 nM
COc1ncc(-c2ccc3nccc(-c4ccnnc4)c3c2)cc1NS(=O)(=O)c1ccc(F)cc1F | 16.2 nM
Cn1c(=O)c(F)c(Nc2ccc(I)cc2F)c2c(=O)n(C[C@@H](O)CO)cnc21 [TAK-733] | 371 nM
O=C(c1ccc(OCCN2CCCCC2)cc1)c1c(-c2ccc(O)cc2)sc2cc(O)ccc12 [Raloxifene] | 2260 nM

The molecules below were run on Hs578T. Conditions: 72 h.
How it was run: as §1

Structure (SMILES) | EC50, CellTiter-Glo
CN(c1ccccc1CNc1nc(Nc2ccc3c(c2)CC(=O)N3)ncc1C(F)(F)F)S(C)(=O)=O | 4360 nM
